Reference: patent US6441167B1, “Cinoxacin lanthanide chelates and their use as biomolecular probes” (SmithKline Beecham plc, priority 1998, dated 2002)

Legend:
[1] = Excitation and emission spectra and time resolved fluorescence decays of Europium chelates; type: physicochemical
Experimental: Below are some typical excitation and emission spectra, alone with time resolved fluorescence decays for Europium chelates of this invention. All spectra and decay measurements were recorded on an Amino Bowman Spectrophotometer (model AB2), with a time resolution of 50 us.
The characteristic narrow emission bands of europium is observed at around 614 nm. The excitation spectrum for the 614 nm emission band peaks at 355 nm, and at least 50% of this intensity is achieved with excitation wavelengths up to 375 nm.
As with the vast majority of fluorescence compounds, the sensitiser group itself has a very short fluorescence lifetime. […] However, as is clearly shown by the decay traces the fluorescence of the Eu^3+ incorporated in the chelate (at 614 nm) has a characteristically long lifetime that enables a time-resolved discrimination between the Eu-containing chelate and other fluorescent compounds. The Eu fluorescence lifetime was fitted with a single exponential fit giving a lifetime of 633 us.

Cy5-labelled peptides = assay: Time resolved fluorescence resonance energy transfer from Cin-DTPA-SA to Cy5-labelled peptide; details: 100 nM Cin-DTPA-SA; saturating concentrations of Cy5-peptide; λex=340 nm
Experimental: Cin-DTPA-SA (100 nM) in PBS/Tween was mixed with increasing concentrations (0.1-1000 nM) of N-Succ-(Cy5-NH-K)AERAQAGVVNASSRLAE(K-NH-Biotin)-CO2H (where underlined letters refer to single amino acid codes) prepared by reaction of the corresponding unlabelled peptide with the N-hydroxysuccinimide esters of biotin and Cy5 (Amersham). After 30 minutes incubation at room temperature, the fluorescence intensity of the sample (λex=340 nm, λem=615 nm or 664 nm) was determined using a time gate of 400 us, 400 us read time, 1000 us cycle time for europium (615 nm) fluorescence and a time gate of 70 us, 200 us read time, 1000 us cycle time for Cy5 (664 nm) fluorescence. The 615 nm fluorescence decreased in a peptide concentration dependent manner by 62-67% at saturating concentrations of Cy5-peptide whilst the 664 nm fluorescence increased in a saturable manner from 1000 counts/second to 8,000 counts/second at saturating concentration of peptide. […] In addition, titration of 10 nM Cin-DTPA-SA with biotinylated allophycocyanin (Bt-APC, 0.5-500 nM, Sigma) in PBS/Tween was associated with an increase in the fluorescence signal at 664 nm from 1000 counts/second to 3,500 counts/second at 500 nM Bt-APC, again indicating energy transfer from the chelate to the acceptor.
The Eu^3+ fluorescence decreases and the Cy5 fluorescence increases as the Cy5-labelled peptide is titrated in. […]

[2] = Time resolved fluorescence signal of streptavidin conjugate (Wallac Victor); type: physicochemical; details: 50 nM in 100 uL; 400 us delay, 400 us read, cycle time 1000 us
Experimental: The reaction mixtures (549 ul) were then desalted into phosphate buffered saline containing 0.05% Tween 20 (PBS/Tween, Sigma) and 500 ul fractions were collected and assayed for protein content (Coomassie Blue Reagent, Biorad). The concentration of the pooled fractions (2 ml, 14 uM) was determined by Coomassie staining using streptavidin as a standard. […] 50 nM Cin-DTPA-SA gave 10,000 counts per second in 100 uL using these conditions. Improved labelling conditions yielding brighter conjugates, were obtained by freshly dissolving the Cin-DTPA-APA-chlorotriazine in 100% DMSO, increasing the pH of the reaction mixture to 9.0 in Bicarbonate buffer, and increasing the reaction time to approximately 16 hours at 4° C.

## CCn1nc(C(=O)NCCNC(=O)CN(CCN(CCN(CC(=O)O)CC(=O)O)CC(=O)O)CC(=O)O)c(=O)c2cc3c(cc21)OCO3 [Cinoxacin-DTPA]
[1]; at 421 nm, time resolution 50 us
  fluorescence lifetime of the chromophore: too short to be reliably detected
[1]; at 614 nm, single exponential fit
  Eu fluorescence lifetime: 633 us
[1]; in the presence of Eu^3+
  emission bands of europium: around 614 nm
  excitation spectrum peak for the 614 nm emission band: 355 nm
[1]; in the presence of Eu^3+, 614 nm emission
  excitation wavelengths at which at least 50% of peak intensity is achieved: up to 375 nm

## Cin-DTPA-SA: streptavidin labelled with Cinoxacin-DTPA-APA-chlorotriazene (D5) and loaded with Eu^3+
Cy5-labelled peptides
  decrease of 615 nm fluorescence: 62-67%
[2]
  time resolved fluorescence signal: 10,000 counts per second

## Cinoxacin-DTPA-Cinoxacin
[1]; at 430 nm, in the presence of Eu^3+
  decay of the chromophore: too fast for detection
